Test results as given in US9751890B2, “Heteroaryl derivatives as CFTR modulators” (Vertex Pharmaceuticals Incorporated, priority 2008, dated 2017).

biological target: T1, ΔF508-CFTR (Homo sapiens, UniProt P13569, DEL508-508); assay: Membrane potential optical assay for ΔF508-CFTR correction (single-addition HTS format); format: cell-based; details: NIH3T3 mouse fibroblasts stably expressing ΔF508-CFTR; 16-24 hrs with compound; activation with 10 μM forskolin and 20 μM genistein; read-out: BinnedMaxEfficacy (PercentActivity)
T1 construct: expressed in transfected cells
T1 sequence (P13569 with tags, fused parts or gaps DEL508-508): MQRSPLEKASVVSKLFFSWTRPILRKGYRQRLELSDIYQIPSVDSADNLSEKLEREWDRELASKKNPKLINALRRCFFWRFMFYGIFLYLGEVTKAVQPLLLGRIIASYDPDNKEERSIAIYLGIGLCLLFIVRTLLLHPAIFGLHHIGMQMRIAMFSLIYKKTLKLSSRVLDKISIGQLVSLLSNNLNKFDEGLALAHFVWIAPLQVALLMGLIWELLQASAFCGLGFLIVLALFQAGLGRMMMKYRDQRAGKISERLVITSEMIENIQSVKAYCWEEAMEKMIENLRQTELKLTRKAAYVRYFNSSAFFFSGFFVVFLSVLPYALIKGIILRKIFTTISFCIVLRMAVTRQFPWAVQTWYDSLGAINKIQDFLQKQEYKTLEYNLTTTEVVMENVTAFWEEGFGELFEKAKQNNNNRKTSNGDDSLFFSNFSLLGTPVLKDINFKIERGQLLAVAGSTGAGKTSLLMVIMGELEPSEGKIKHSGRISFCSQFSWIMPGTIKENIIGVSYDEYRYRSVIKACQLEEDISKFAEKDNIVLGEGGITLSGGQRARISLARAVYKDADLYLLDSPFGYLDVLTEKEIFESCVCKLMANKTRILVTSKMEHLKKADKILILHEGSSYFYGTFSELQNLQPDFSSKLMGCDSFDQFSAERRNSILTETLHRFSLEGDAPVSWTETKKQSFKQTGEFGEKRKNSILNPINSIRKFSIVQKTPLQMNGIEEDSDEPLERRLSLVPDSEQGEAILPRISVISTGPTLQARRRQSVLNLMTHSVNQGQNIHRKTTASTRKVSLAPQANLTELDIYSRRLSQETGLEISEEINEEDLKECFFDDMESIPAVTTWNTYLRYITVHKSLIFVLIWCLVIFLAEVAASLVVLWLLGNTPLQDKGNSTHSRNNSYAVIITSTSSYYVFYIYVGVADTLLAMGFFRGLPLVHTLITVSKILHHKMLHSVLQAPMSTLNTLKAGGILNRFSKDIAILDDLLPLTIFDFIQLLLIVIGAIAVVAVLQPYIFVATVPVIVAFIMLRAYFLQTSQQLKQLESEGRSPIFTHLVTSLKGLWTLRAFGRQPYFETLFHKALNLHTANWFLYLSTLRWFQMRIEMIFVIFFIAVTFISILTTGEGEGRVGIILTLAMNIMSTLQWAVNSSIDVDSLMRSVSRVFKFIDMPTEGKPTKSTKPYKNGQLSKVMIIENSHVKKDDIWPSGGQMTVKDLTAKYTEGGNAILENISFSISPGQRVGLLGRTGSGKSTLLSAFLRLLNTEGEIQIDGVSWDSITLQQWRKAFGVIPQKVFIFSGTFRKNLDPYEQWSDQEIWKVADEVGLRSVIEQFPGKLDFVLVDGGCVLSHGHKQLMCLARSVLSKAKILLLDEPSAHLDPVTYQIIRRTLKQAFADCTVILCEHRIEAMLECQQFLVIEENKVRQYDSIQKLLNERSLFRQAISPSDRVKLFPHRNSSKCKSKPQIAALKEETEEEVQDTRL
Text: Membrane potential optical methods for assaying ΔF508-CFTR modulation properties of compounds.
The assay utilizes fluorescent voltage sensing dyes to measure changes in membrane potential using a fluorescent plate reader (e.g., FLIPR III, Molecular Devices, Inc.) as a readout for increase in functional ΔF508-CFTR in NIH 3T3 cells. The driving force for the response is the creation of a chloride ion gradient in conjunction with channel activation by a single liquid addition step after the cells have previously been treated with compounds and subsequently loaded with a voltage sensing dye.
To identify small molecules that correct the trafficking defect associated with ΔF508-CFTR; a single-addition HTS assay format was developed. Assay Plates containing cells are incubated for ˜2-4 hours in tissue culture incubator at 37° C., 5% CO2, 90% humidity. Cells are then ready for compound exposure after adhering to the bottom of the assay plates.
The cells were incubated in serum-free medium for 16-24 hrs in tissue culture incubator at 37° C., 5% CO2, 90% humidity in the presence or absence (negative control) of test compound. The cells were subsequently rinsed 3× with Krebs Ringers solution and loaded with a voltage sensing redistribution dye. To activate ΔF508-CFTR, 10 μM forskolin and the CFTR potentiator, genistein (20 μM), were added along with Cl^−-free medium to each well. The addition of Cl^−-free medium promoted Cl^− efflux in response to ΔF508-CFTR activation and the resulting membrane depolarization was optically monitored using voltage sensor dyes.
Bath Solution #1: (in mM) NaCl 160, KCl 4.5, CaCl2 2, MgCl2 1, HEPES 10, pH 7.4 with NaOH.
Chloride-free bath solution: Chloride salts in Bath Solution #1 are substituted with gluconate salts.
NIH3T3 mouse fibroblasts stably expressing ΔF508-CFTR are used for optical measurements of membrane potential. The cells are maintained at 37° C. in 5% CO2 and 90% humidity in Dulbecco's modified Eagle's medium supplemented with 2 mM glutamine, 10% fetal bovine serum, 1×NEAA, β-ME, 1× pen/strep, and 25 mM HEPES in 175 cm^2 culture flasks. For all optical assays, the cells were seeded at ˜20,000/well in 384-well matrigel-coated plates and cultured for 2 hrs at 37° C. before culturing at 27° C. for 24 hrs. for the potentiator assay. For the correction assays, the cells are cultured at 27° C. or 37° C. with and without compounds for 16-24 hours.

Row | Emax | Compound
1 | > 100% | Cc1ncc(NC(=O)C2(c3ccc4c(c3)OCO4)CC2)cc1-c1ccccc1 [Compound 42, 1-(benzo[d][1,3]dioxol-5-yl)-N-(6-methyl-5-phenylpyridin-3-yl)cyclopropanecarboxamide]
2 | > 100% | COc1ccccc1Cc1cncc(NC(=O)C2(c3ccc4c(c3)OCO4)CC2)n1 [Compound 33]

Continued, compound first:

Row | Compound | Emax
3 | N#Cc1ccc(NC(=O)C2(c3ccc4c(c3)OCO4)CC2)cn1 [Compound 15, 1-(benzo[d][1,3]dioxol-5-yl)-N-(6-cyanopyridin-3-yl)cyclopropanecarboxamide] | 25 to 100%
4 | O=C(Nc1cnc(Cc2ccccc2Cl)cn1)C1(c2ccc3c(c2)OCO3)CC1 [Compound 1, 1-(benzo[d][1,3]dioxol-5-yl)-N-(5-(2-chlorobenzyl)pyrazin-2-yl)cyclopropanecarboxamide] | > 100%
5 | Cc1ccc(S(=O)(=O)c2ncccc2NC(=O)C2(c3ccc4c(c3)OCO4)CC2)cc1 [Compound 18, 1-(benzo[d][1,3]dioxol-5-yl)-N-(2-tosylpyridin-3-yl)cyclopropanecarboxamide] | > 100%
6 | O=C(Nc1ccc(-c2ccccc2Cl)nc1)C1(c2ccc3c(c2)OCO3)CC1 [Compound 7, 1-(benzo[d][1,3]dioxol-5-yl)-N-(6-(2-chlorophenyl)pyridin-3-yl)cyclopropanecarboxamide] | > 100%
7 | O=C(Nc1cncc(Cc2ccccc2Cl)n1)C1(c2ccc3c(c2)OCO3)CC1 [Compound 13] | > 100%
